{"source": "paper PMC6101361", "about": "(PLoS ONE, 2018)", "origin": "cited, not measured here", "tested_on": "anti-ß1EC2-induced heart failure in rats", "settings": "daily applications; ref [20]", "text": "The observed trend to ...", "data": [{"molecule": "CC(C)NCC(O)COc1ccc(COCCOC(C)C)cc1", "note": "(stereo not shown) [bisoprolol]", "values": [{"measurement": "effect on anti-ß1EC2–induced heart failure", "value": "only delayed progression of anti-ß1EC2–induced heart failure"}]}]}
